Where two headings read alike, the source gives them in different places.

The values below come from patent US10081634B2, “Heterocyclic compound” (Daewoong Pharmaceutical Co., Ltd., priority 2014, dated 2018).

The subject of experiment [1] is NCI-H460 cells. The experiment in a line: Cancer cell growth inhibition experiment (MTT assay). Type of experiment: cell-based. Particulars: Homo sapiens; NCI-H460 lung cancer cell line; 48 hours treatment; MTT cell viability. The protocol: NCI-H460 cells, lung cancer cell lines, were cultured in 5% CO2, 37° C. incubator using a flask for 75 cm^2 tissue culture. 96-well plates were used for the evaluation. These were prepared by differently applying at concentrations in the range of 6,000 to 12,000 cells/well according to the growth rate of the cell lines. The medium containing 5% FBS were dispensed in 200 μL/well and used. The medium were cultured for 24 hours. After confirming the cell status and dispensing form of a 96-well plate under a microscope, they were used for subsequent experiments. The compounds were evaluated at concentrations of 100, 30, 10, 3, 1, 0.3, 0.03, 0.01 μM. After removing the existing medium, the compounds with various concentrations were treated in an amount of 200 μL/well. The compounds-treated plates were further cultured for 48 hours, and the cell viabilities were measured by MTT assay to calculate IC50 values.
% Inhibition and IC50 values of the respective compounds were calculated and analyzed using Sigma Plot 8.0. The case where the derived IC50 is 5 μM or less is represented by “A”, the case where the IC50 is 5 to 30 μM is represented by “B”, and the case where the IC50 is 30 μM or higher is represented by “C”.
(Tetrazolium dyes change colour on reduction, which living cells bring about.)

Experiment [2] concerns the target T1, PRS (prolyl-tRNA synthetase) (Homo sapiens, UniProt P07814).
T1 construct: the portion corresponding to PRS in cDNA of EPRS was subcloned; made in house
T1 sequence (P07814 1007-1512 limits assumed): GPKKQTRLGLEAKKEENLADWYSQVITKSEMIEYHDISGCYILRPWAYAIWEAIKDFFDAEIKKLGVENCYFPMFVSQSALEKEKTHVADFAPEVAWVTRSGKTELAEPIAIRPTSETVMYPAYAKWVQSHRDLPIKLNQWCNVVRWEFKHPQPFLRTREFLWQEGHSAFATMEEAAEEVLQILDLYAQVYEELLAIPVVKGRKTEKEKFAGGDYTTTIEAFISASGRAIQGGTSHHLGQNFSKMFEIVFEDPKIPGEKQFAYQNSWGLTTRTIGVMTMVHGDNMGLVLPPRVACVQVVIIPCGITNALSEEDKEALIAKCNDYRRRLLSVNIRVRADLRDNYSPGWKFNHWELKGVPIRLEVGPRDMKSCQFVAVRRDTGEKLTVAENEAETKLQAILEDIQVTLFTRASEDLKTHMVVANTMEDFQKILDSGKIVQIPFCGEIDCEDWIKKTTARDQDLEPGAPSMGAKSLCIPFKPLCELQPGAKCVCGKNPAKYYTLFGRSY
The experiment in a line: In vitro PRS enzyme activity inhibition experiment ([3H]proline, liquid scintillation). Type of experiment: biochemical. The protocol: In order to confirm the biological activities of the compounds prepared in Examples, % inhibition or IC50 values of PRS enzyme ([…]) activities were calculated.
Specifically, the portion corresponding to PRS in cDNA of EPRS was subcloned, and the obtained high-purity PRS protein was purified and used in the experiment. The compounds (1 μM) prepared in Examples were added into the reaction buffer (20 mM KPO4 (pH 7.4), 6 mM MgAc, 5 mM ATP, […] tRNA, 0.5 mM DTT, 20 mCi[^3H]proline (1 mCi/mL)) and allowed to react at 37° C. for 5 to 10 minutes. The reaction was terminated with 3M paper that was previously dried by addition of 5% TCA. The radioactivity was measured using a liquid scintillation counter.
IC50 values of the respective compounds were calculated and analyzed using Microsoft Excel or Sigma Plot 8.0. In Table 1, the results are divided into A, B and C according to the range of IC50. The case where the derived IC50 is 100 nM or less is represented by “A”, the case where the IC50 is 100 to 500 nM is represented by “B”, and the case where the IC50 is 500 nM or higher is represented by “C”.

Setting [3] is: purified PRS protein subcloned from EPRS cDNA, 37° C., 5 to 10 minutes, read-out: PRS IC50.

Take `O=C(C[C@H]1NCCC[C@@H]1O)Cn1cnc2cc(F)c(Br)cc21` [Example 26, 1-(6-bromo-5-fluoro-1H-benzo[d]imidazol-1-yl)-3-((2R,3S)-3-hydroxypiperidin-2-yl)propan-2-one]: the IC50 (as a rule, the concentration that gives 50% inhibition) in experiment [1] was at most 5 µM; in experiment [2] (setting [3]), under 0.1 µM.

On to `O=C(C[C@H]1NCCC[C@@H]1O)Cn1cnc2cc(Br)c(Br)cc21` [Example 27, 1-(5,6-dibromo-1H-benzo[d]imidazol-1-yl)-3-((2R,3S)-3-hydroxypiperidin-2-yl)propan-2-one], for which the IC50 is 5 to 30 µM in experiment [1] and under 0.1 µM in experiment [2] (setting [3]).

With `Cc1c(Cl)ccc2ncn(CC(=O)C[C@H]3NCCC[C@@H]3O)c12` [Example 28, 1-(6-chloro-7-methyl-1H-benzo[d]imidazol-1-yl)-3-((2R,3S)-3-hydroxypiperidin-2-yl)propan-2-one], the IC50 in experiment [1] is at least 30 µM; in experiment [2] (setting [3]), under 0.1 µM.

Consider `O=C(C[C@H]1NCCC[C@@H]1O)Cn1cnc2nc(C(F)(F)F)ccc21` [Example 30, 1-((2R,3S)-3-hydroxypiperidin-2-yl)-3-(5-(trifluoromethyl)-1H-imidazo[4,5-b]pyridin-1-yl)propan-2-one], for which the IC50 in experiment [1] was at least 30 µM; in experiment [2] (setting [3]), over 0.5 µM.

Consider `O=C(C[C@H]1NCCC[C@@H]1O)Cn1cnc2cnc(Cl)cc21` [Example 32, 1-(6-chloro-1H-imidazo[4,5-c]pyridin-1-yl)-3-((2R,3S)-3-hydroxypiperidin-2-yl)propan-2-one], for which the IC50 in experiment [1] was at least 30 µM; in experiment [2] (setting [3]), 0.1 to 0.5 µM.

On to `O=C(C[C@H]1NCCC[C@@H]1O)Cn1cnc2cncc(Br)c21` [Example 33, 1-(7-bromo-1H-imidazo[4,5-c]pyridin-1-yl)-3-((2R,3S)-3-hydroxypiperidin-2-yl)propan-2-one], for which the IC50 was 5 to 30 µM in experiment [1] and under 0.1 µM in experiment [2] (setting [3]).

Turning to `O=C(C[C@H]1NCCC[C@@H]1O)Cn1cnc2ccc(Br)nc21` [Example 35, 1-(5-bromo-3H-imidazo[4,5-b]pyridin-3-yl)-3-((2R,3S)-3-hydroxypiperidin-2-yl)propan-2-one], the IC50 was 5 to 30 µM in experiment [1] and under 0.1 µM in experiment [2] (setting [3]).

Turning to `O=C(C[C@H]1NCCC[C@@H]1O)Cn1cnc2ccc(C(F)(F)F)nc21` [Example 36, 1-((2R,3S)-3-hydroxypiperidin-2-yl)-3-(5-(trifluoromethyl)-3H-imidazo[4,5-b]pyridin-3-yl)propan-2-one], the IC50 in experiment [1] was 5 to 30 µM; in experiment [2] (setting [3]), under 0.1 µM.

Consider `O=C(C[C@H]1NCCC[C@@H]1O)Cn1cnc2cc(Br)cnc21` [Example 37, 1-(6-bromo-3H-imidazo[4,5-b]pyridin-3-yl)-3-((2R,3S)-3-hydroxypiperidin-2-yl)propan-2-one], for which the IC50 was at most 5 µM in experiment [1] and under 0.1 µM in experiment [2] (setting [3]).

As to `N#Cc1cnc2c(c1)ncn2CC(=O)C[C@H]1NCCC[C@@H]1O` [Example 38, 3-(3-((2R,3S)-3-hydroxypiperidin-2-yl)-2-oxopropyl)-3H-imidazo[4,5-b]pyridine-6-carbonitrile], the IC50 in experiment [1] was at least 30 µM; in experiment [2] (setting [3]) it was 0.1 to 0.5 µM.

Consider `Cc1c(Cl)cnc2c1ncn2CC(=O)C[C@H]1NCCC[C@@H]1O` [Example 39, 1-(6-chloro-7-methyl-3H-imidazo[4,5-b]pyridin-3-yl)-3-((2R,3S)-3-hydroxypiperidin-2-yl)propan-2-one], for which the IC50 in experiment [1] is at most 5 µM; in experiment [2] (setting [3]), under 0.1 µM.

With `Cc1c(Br)cnc2c1ncn2CC(=O)C[C@H]1NCCC[C@@H]1O` [Example 40, 1-(6-bromo-7-methyl-3H-imidazo[4,5-b]pyridin-3-yl)-3-((2R,3S)-3-hydroxypiperidin-2-yl)propan-2-one], the IC50 in experiment [1] was at most 5 µM; in experiment [2] (setting [3]), under 0.1 µM.

In the case of `O=C(C[C@H]1NCCC[C@@H]1O)Cn1cnc2c(Cl)c(Br)cnc21` [Example 42, 1-(6-bromo-7-chloro-3H-imidazo[4,5-b]pyridin-3-yl)-3-((2R,3S)-3-hydroxypiperidin-2-yl)propan-2-one], the IC50 is at most 5 µM in experiment [1] and under 0.1 µM in experiment [2].

On to `Cc1nc2cc(Cl)c(Cl)cc2n1CC(=O)C[C@H]1NCCC[C@@H]1O` [Example 46, 1-(5,6-dichloro-2-methyl-1H-benzo[d]imidazol-1-yl)-3-((2R,3S)-3-hydroxypiperidin-2-yl)propan-2-one], for which the IC50 was at least 30 µM in experiment [1] and under 0.1 µM in experiment [2] (setting [3]).

Regarding `CCc1nc2cc(Cl)c(Cl)cc2n1CC(=O)C[C@H]1NCCC[C@@H]1O` [Example 48, 1-(5,6-dichloro-2-ethyl-1H-benzo[d]imidazol-1-yl)-3-((2R,3S)-3-hydroxypiperidin-2-yl)propan-2-one], the IC50 was at least 30 µM in experiment [1] and over 0.5 µM in experiment [2] (setting [3]).

In the case of `O=C(C[C@H]1NCCC[C@@H]1O)Cn1c(C(F)(F)F)nc2cc(Cl)c(Cl)cc21` [Example 50, 1-(5,6-dichloro-2-(trifluoromethyl)-1H-benzo[d]imidazol-1-yl)-3-((2R,3S)-3-hydroxypiperidin-2-yl)propan-2-one], the IC50 in experiment [1] was at least 30 µM; in experiment [2] (setting [3]), over 0.5 µM.

As to `CN(C)Cc1nc2cc(Cl)c(Cl)cc2n1CC(=O)C[C@H]1NCCC[C@@H]1O` [Example 51, 1-(5,6-dichloro-2-((dimethylamino)methyl)-1H-benzo[d]imidazol-1-yl)-3-((2R,3S)-3-hydroxypiperidin-2-yl)propan-2-one], the values for the half-maximal inhibitory concentration (IC50) in experiment [1] and in experiment [2] (setting [3]) were at least 30 µM and over 0.5 µM, respectively.

In the case of `NCc1nc2cc(Cl)c(Cl)cc2n1CC(=O)C[C@H]1NCCC[C@@H]1O` [Example 52, 1-(2-(aminomethyl)-5,6-dichloro-1H-benzo[d]imidazol-1-yl)-3-((2R,3S)-3-hydroxypiperidin-2-yl)propan-2-one], the IC50 was at least 30 µM in experiment [1] and over 0.5 µM in experiment [2] (setting [3]).

Take `O=C(C[C@H]1NCCC[C@@H]1O)Cn1c(CO)nc2ccccc21` [Example 56, 1-(2-(hydroxymethyl)-1H-benzo[d]imidazol-1-yl)-3-((2R,3S)-3-hydroxypiperidin-2-yl)propan-2-one]: the IC50 in experiment [1] is at least 30 µM; in experiment [2] (setting [3]), under 0.1 µM.

For the molecule `O=C(C[C@H]1NCCC[C@@H]1O)Cn1c(CO)nc2cc(Br)ccc21` [Example 57, 1-(5-bromo-2-(hydroxymethyl)-1H-benzo[d]imidazol-1-yl)-3-((2R,3S)-3-hydroxypiperidin-2-yl)propan-2-one], the IC50 in experiment [1] is 5 to 30 µM; in experiment [2] (setting [3]) it was 0.1 to 0.5 µM.

Turning to `O=C(C[C@H]1NCCC[C@@H]1O)Cn1c(CO)nc2ccc(Br)cc21` [Example 58, 1-(6-bromo-2-(hydroxymethyl)-1H-benzo[d]imidazol-1-yl)-3-((2R,3S)-3-hydroxypiperidin-2-yl)propan-2-one], the IC50 in experiment [1] is 5 to 30 µM; in experiment [2] (setting [3]) it was under 0.1 µM.

Regarding `O=C(C[C@H]1NCCC[C@@H]1O)Cn1c(CO)nc2ccc(C(F)(F)F)cc21` [Example 59, 1-(2-(hydroxymethyl)-6-(trifluoromethyl)-1H-benzo[d]imidazol-1-yl)-3-((2R,3S)-3-hydroxypiperidin-2-yl)propan-2-one], the IC50 in experiment [1] was 5 to 30 µM; in experiment [2] (setting [3]) it was under 0.1 µM.

For the molecule `O=C(C[C@H]1NCCC[C@@H]1O)Cn1c(CO)nc2cc(OC(F)(F)F)ccc21` [Example 60, 1-(2-(hydroxymethyl)-5-(trifluoromethoxy)-1H-benzo[d]imidazol-1-yl)-3-((2R,3S)-3-hydroxypiperidin-2-yl)propan-2-one], the IC50 in experiment [1] is at least 30 µM; in experiment [2] (setting [3]), over 0.5 µM.
